Positions count from the first letter of the chain named. “Also recorded” adds a separate entry of the source. Where two headings read alike, the source gives them in different places.
What was measured:
[1] = molecular target: T1, hVDR mutant H305F/H397Y (Homo sapiens, UniProt P11473, H305F/H397Y); format: cell-based
T1 sequence (P11473 127-423 H305F/H397Y limits assumed): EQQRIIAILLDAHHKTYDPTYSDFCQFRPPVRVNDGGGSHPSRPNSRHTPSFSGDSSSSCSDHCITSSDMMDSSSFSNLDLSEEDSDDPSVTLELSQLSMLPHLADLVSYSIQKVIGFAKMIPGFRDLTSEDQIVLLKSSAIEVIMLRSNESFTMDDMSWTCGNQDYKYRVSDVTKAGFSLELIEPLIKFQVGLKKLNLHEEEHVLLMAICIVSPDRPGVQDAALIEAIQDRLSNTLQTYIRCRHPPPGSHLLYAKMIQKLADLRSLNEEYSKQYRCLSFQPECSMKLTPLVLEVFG

[2] = molecular target: T2, wild-type hVDR (Homo sapiens, UniProt P11473); format: cell-based; settings: HEK293T
T2 sequence (P11473 127-423 limits assumed): T1 sequence (P11473 127-423 H305F/H397Y limits assumed) with F179H, Y271H

[3] = molecular target: T3, hVDR mutant H305Y (Homo sapiens, UniProt P11473, H305Y); format: cell-based; settings: HEK293T
T3 sequence (P11473 127-423 H305Y limits assumed): T1 sequence (P11473 127-423 H305F/H397Y limits assumed) with F179Y, Y271H

[4] = molecular target: T4, hVDR mutant H305F (Homo sapiens, UniProt P11473, H305F); format: cell-based; settings: HEK293T
T4 sequence (P11473 127-423 H305F limits assumed): T1 sequence (P11473 127-423 H305F/H397Y limits assumed) with Y271H

[5] = molecular target: T5, wild-type hVDR (Homo sapiens, UniProt P11473); format: cell-based
T5 sequence (P11473 1-427): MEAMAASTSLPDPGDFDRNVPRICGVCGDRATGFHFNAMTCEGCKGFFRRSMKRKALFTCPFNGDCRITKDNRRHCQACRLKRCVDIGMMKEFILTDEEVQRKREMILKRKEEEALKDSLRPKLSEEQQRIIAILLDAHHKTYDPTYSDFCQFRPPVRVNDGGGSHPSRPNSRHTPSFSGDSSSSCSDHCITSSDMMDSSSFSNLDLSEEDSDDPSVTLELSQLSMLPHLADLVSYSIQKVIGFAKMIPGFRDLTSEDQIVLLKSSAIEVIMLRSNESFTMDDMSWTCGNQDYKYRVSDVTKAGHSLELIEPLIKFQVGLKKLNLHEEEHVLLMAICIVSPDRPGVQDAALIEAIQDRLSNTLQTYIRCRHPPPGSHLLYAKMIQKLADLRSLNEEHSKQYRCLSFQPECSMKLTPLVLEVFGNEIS

[6] = molecular target: hVDR mutant H305F/H397Y (Homo sapiens, UniProt P11473, H305F/H397Y); settings: adenine selective media (-ALW)
Target sequence in this assay (Q9Y6Q9 whole entry partner, one chain of several): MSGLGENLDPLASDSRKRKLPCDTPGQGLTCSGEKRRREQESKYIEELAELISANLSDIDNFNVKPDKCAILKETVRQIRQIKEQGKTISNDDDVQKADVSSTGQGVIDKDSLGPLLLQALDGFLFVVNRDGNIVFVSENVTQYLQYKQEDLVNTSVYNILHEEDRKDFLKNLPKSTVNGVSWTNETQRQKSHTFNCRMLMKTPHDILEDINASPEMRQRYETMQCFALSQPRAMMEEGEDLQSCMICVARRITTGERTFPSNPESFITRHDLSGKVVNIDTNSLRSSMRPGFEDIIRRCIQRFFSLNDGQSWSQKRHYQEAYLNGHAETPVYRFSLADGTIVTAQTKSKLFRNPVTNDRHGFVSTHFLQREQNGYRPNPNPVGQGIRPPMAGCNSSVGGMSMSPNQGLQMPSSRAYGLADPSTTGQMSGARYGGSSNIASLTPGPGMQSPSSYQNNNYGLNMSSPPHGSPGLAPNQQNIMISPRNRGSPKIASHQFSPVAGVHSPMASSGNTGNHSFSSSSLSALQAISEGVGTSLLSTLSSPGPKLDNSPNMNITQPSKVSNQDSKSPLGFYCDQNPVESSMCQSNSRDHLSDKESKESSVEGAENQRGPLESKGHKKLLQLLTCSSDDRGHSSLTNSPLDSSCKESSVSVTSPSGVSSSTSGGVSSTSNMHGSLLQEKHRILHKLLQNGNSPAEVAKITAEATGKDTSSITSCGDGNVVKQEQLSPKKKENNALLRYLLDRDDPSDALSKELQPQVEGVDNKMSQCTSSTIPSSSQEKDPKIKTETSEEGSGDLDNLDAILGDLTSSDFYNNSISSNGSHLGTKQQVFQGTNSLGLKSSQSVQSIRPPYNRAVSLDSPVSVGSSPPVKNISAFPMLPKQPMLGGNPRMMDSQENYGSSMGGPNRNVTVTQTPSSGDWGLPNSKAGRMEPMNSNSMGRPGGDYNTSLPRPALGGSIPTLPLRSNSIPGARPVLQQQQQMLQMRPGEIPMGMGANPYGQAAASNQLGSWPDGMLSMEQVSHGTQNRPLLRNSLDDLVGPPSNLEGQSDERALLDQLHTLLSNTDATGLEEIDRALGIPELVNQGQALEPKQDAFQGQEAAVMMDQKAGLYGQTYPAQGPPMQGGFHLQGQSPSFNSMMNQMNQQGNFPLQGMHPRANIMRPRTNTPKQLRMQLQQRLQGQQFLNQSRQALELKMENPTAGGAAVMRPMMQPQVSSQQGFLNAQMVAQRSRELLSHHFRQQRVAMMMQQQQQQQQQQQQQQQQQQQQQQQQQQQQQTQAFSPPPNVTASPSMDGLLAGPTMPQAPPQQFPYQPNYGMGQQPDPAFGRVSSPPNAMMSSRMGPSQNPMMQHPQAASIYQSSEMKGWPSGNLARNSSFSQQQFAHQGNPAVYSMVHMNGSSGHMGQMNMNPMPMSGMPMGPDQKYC

[7] = molecular target: hVDR mutant H305Y (Homo sapiens, UniProt P11473, H305Y); experiment: Chemical complementation, yeast PJ69-4A liquid quantitation growth assay; format: cell-based
Target sequence in this assay (P11473 127-423 H305Y limits assumed): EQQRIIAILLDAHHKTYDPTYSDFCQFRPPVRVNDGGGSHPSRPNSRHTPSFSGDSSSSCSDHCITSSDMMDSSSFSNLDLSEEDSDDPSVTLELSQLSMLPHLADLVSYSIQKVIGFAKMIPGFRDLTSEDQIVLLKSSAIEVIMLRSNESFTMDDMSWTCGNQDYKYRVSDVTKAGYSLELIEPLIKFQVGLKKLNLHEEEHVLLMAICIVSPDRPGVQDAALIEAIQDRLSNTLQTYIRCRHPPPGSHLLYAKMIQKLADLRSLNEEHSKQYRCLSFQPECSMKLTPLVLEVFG
Target sequence in this assay (Q9Y6Q9 whole entry partner): as the sequence (Q9Y6Q9 whole entry partner, one chain of several) above

[8] = molecular target: hVDR mutant H305F (Homo sapiens, UniProt P11473, H305F); experiment: as above; format: cell-based
Target sequence in this assay (P11473 127-423 H305F limits assumed): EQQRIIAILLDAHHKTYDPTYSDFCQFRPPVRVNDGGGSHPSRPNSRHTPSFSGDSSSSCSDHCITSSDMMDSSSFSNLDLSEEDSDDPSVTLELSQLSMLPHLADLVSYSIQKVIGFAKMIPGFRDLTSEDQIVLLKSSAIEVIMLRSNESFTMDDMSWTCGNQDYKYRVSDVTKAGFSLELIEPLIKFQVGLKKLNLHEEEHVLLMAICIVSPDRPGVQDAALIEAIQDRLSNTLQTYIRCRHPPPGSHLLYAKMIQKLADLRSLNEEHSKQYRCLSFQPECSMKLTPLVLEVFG
Target sequence in this assay (Q9Y6Q9 whole entry partner): as the sequence (Q9Y6Q9 whole entry partner, one chain of several) above

[9] = tested on: hVDR H305F; settings: antagonist on wild-type hVDR; cited from earlier work
[10] = histidine selective media (data not shown)

ligand concentration at which activation is displayed ([1]; HEK293T) [µM] | ligand concentration at which activation is displayed [2] [µM] | ligand concentration at which growth/activation is observed [6] [µM] | ligand concentration at which growth is observed ([7]; adenine selective media (-ALW)) [µM] | ligand concentration at which growth is observed [7, 10] [µM] | ligand concentration at which growth is observed ([8]; adenine selective media (-ALW)) [µM] | ligand concentration at which growth is observed [8, 10] [µM] | ligand-activated growth (in words) ([5]; adenine selective media (-ALW)) | ligand concentration at which growth is observed ([5]; histidine selective media (SC-HLW + 0.1 mM 3AT), OD 630) [µM] | SMILES | lowest ligand concentration giving activation ([1]; mammalian cell assays) [nM] | activation of receptor (in words) [2] | ligand concentration at which activation is displayed [3] [µM] | ligand concentration at which activation is displayed [4] [µM] | ligand-activated growth (in words) ([5]; Figure 2B, any ligand concentration) | functional character with the H305F mutation (in words) [9]
 |  |  |  |  |  |  |  |  | C=C1CC[C@H](O)C/C1=C/C=C1\CCC[C@]2(C)[C@@H]([C@H](C)CCCC(C)C)CC[C@@H]12 [Cholecalciferol, cholecalciferol] | 100 | does not activate; also recorded: no activation | 1 | 1 | No ligand activated growth; also recorded: not observed | 
1 | 100 | 1 | 1 | 0.1 | 1 | 0.1 | no growth | 10 | C[C@H](CCC(=O)O)[C@H]1CC[C@H]2[C@@H]3CC[C@@H]4C[C@H](O)CC[C@]4(C)[C@H]3CC[C@]12C [Lithocholic Acid, lithocholic acid] |  |  | 1 |  |  | 
 |  |  |  |  |  |  |  |  | C=C1C[C@H](C[C@@H](C)[C@H]2CC[C@H]3/C(=C/C=C4/C[C@@H](O)C[C@H](O)C4=C)CCC[C@]23C)OC1=O [MK, (23S)-25-dehydro-1alpha(OH)-vitamin D3-26,23-lactone] |  |  |  |  |  | superagonist

From PMC3105188 (The Journal of steroid biochemistry and molecular biology, 2011)
